Assay results taken from patent US10030027B2, “Soluble guanylate cyclase stimulators” (MERCK SHARP & DOHME CORP., priority 2015, dated 2018).
pEC50, pKi: −log10 of the molar value.

Experiments:
[1] = biological target: human recombinant sGC enzyme (Homo sapiens (Human), UniProt Q02108+Q02153); test: Size Exclusion Chromatography (SEC) competition binding assay using [3H] Ex-77B as the radioligand; settings: [3H] Ex-77B radioligand, 24 hours at 37° C.
In short: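 Recombinant human sGC binding measured by competition against tritiated Ex-77B radioligand, with non-specific binding defined by 1 μM unlabeled Ex-77B.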

[2] = system: hypoxia-induced pulmonary hypertension rat; test: Acute efficacy in hypoxia-induced pulmonary hypertension in rat following intratracheal administration; assay type: in vivo
From the text: Acute Efficacy in Hypoxia-Induced Pulmonary Hypertension in Rat Following Intratracheal Administration Charles River Sprague-Dawley (CD) male rats weighing approximately 350 g were implanted with HD-S21 dual pressure telemetry transmitters (Data Sciences International (DSI)) into the pulmonary artery and femoral artery. This transmitter enables simultaneous measurement of both pulmonary and systemic hemodynamic parameters in the same animal. After a 7-10 day post-operative recovery period, animals were subjected to a normobaric hypoxic (10% oxygen) environment using a Higher Peak Mountain Air Generator (MAG-10) connected to a modified rodent cage via a fitted inlet port. Oxygen (at 10%), temperature, humidity, and CO2 were controlled within normal range and animals were maintained on a 12 hour light-dark cycle with ad libitum access to food and water. After two weeks exposure to 10% O2 hypoxic environment, systolic pulmonary arterial pressure readings increased from 25 mmHg to greater than 50 mmHg. Using a 48 hour baseline average, animals with readings between 50-110 mmHg (standard deviation of less than 10 mmHg) and minimal changes in systolic systemic blood pressure were enrolled for study. Animals were utilized for up to 2 studies per week for 4 weeks with a minimum of 2 days washout between doses of test agent. Compound or vehicle was administered intra-tracheally under light isoflurane anesthesia (5% in oxygen; flow rate 2.0 L/min for 3 minutes). Once anesthetized, rats were placed on an angled intubation stand in supine position and the trachea visualized using a small laryngoscope. Animals then received either 0.5 mL/kg of vehicle or 0.5 mL/kg vehicle containing compound intra-tracheally delivered via microsprayer by use of a Penn-Century Microsprayer® needle 3″ (Model IA-1B-GP) attached to a 1 mL high pressure syringe (Penn Century-Model B-SYR-PL1000) (Penn-Century, Philadelphia, Pa.). The Microsprayer® tip was inserted into the trachea up to the point at which the bend in the needle is close to the tip of the snout, which positions the tip of the Microsprayer® in front of the carina (bifurcation of trachea at the bronchi). After dose delivery the animal is placed on its back in the home cage for recovery. Hemodynamic measurements were continuously recorded and readings consolidated to hourly moving averages. Each animal received a vehicle on Day 1 followed by vehicle or test agent on Day 2. Change from vehicle baseline was calculated by subtracting the hourly Day 1 vehicle response from the hourly Day 2 response and treatment group data was expressed as mean±SEM. Decreases of systolic blood pressure (SBP) and systolic pulmonary arterial pressure (PAP) were measured at a particular IT dose (mpk milligrams per kilogram) for the following Example compounds.

sGC α1/β1 heterodimer = sGC α1/β1 heterodimer (Homo sapiens (Human), UniProt Q02108+Q02153); test: Cell-based sGC functional assay (cyclic GMP assay for sGC activator: CASA assay); settings: CHO-K1/sGC cells; for Emax: CHO-K1, activity expressed as percentage of compound A (standard), read-out: % Activation; for pEC50: inflection point, 4P fit, read-out: IP
In short: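 CHO-K1 cells stably expressing sGC α1/β1 were pre-incubated with or without 1 μM DETA-NO (30 min, 25 °C), then exposed to compounds for 1 hr at 37 °C with 0.5 mM IBMX. Intracellular cGMP was read by HTRF and expressed as a percentage of a reference heme-dependent activator's maximum.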

Row | SMILES | pKi [1] | Emax (sGC α1/β1 heterodimer) [%] | pEC50 (sGC α1/β1 heterodimer) | Category: decrease in SBP (at minimum decrease in PAP of ≥15 mmHg) ([2]; Dose IT 0.03 mpk) | Category: decrease in SBP (at minimum decrease in PAP of ≥15 mmHg) ([2]; Dose IT 0.01 mpk)
1 | C[C@@]1(c2ccc(CCC(=O)O)cc2)C(=O)Nc2nc(-c3nn(Cc4ccccc4F)c4cc(Cl)ccc34)nc(N)c21 [Example 47B, (S)-3-(4-{4-amino-2-[6-chloro-1-(2-fluorobenzyl)-1H-indazol-3-yl]-5-methyl-6-oxo-6,7-dihydro-5H-pyrrolo[2,3-d]pyrimidin-5-yl}phenyl)propanoic acid] | 9.94 | 88 | 6.66 | A (decrease in SBP 0-5 mmHg) | 
2 | CC1(c2ccc(CCC(=O)O)cn2)C(=O)Nc2nc(-c3nn(CCC(F)(F)C(F)(F)F)c4cc(Cl)ccc34)nc(N)c21 (stereo not shown) [Example 119B, 3-(6-{4-Amino-2-[6-chloro-1-(3,3,4,4,4-pentafluorobutyl)-1H-indazol-3-yl]-5-methyl-6-oxo-6,7-dihydro-5H-pyrrolo[2,3-d]pyrimidin-5-yl}pyridin-3-yl)propanoic acid] | 9.53 | 103 | 6.08 | A (decrease in SBP 0-5 mmHg) | 
3 | C[C@@]1(c2ccc(CCC(=O)O)cc2)C(=O)Nc2nc(-c3nn(CC4CC(F)(F)C4)c4cc(Cl)ccc34)nc(N)c21 [Example 163B, (S)-3-{4-[4-amino-2-{6-chloro-1-[(3,3-difluorocyclo-butyl)methyl]-1H-indazol-3-yl}-5-methyl-6-oxo-6,7-dihydro-5H-pyrrolo[2,3-d]pyrimidin-5-yl]phenyl}propanoic acid] | 8.73 | 90.8 | 6.39 | C (decrease in SBP>10 mmHg) | 
4 | CC(C)(Cc1csc([C@]2(C)C(=O)Nc3nc(-c4nn(Cc5ncccc5F)c5cc(Cl)ccc45)nc(N)c32)n1)C(=O)O [Example 185A, (S)-3-{2-[4-amino-2-{6-chloro-1-[(3-fluoropyridin-2-yl)methyl]-1H-indazol-3-yl}-5-methyl-6-oxo-6,7-dihydro-5H-pyrrolo[2,3-d]pyrimidin-5-yl]-1,3-thiazol-4-yl}-2,2-dimethyl-propanoic acid] | 9.78 | 110 | 6.37 |  | A (decrease in SBP 0-5 mmHg)
5 | CC(C)(Cc1coc(C2(C)C(=O)Nc3nc(-c4nn(CC5CCCCC5)c5cc(F)ccc45)nc(N)c32)n1)C(=O)O (stereo not shown) [Example 202A, 3-(2-{4-amino-2-[1-(cyclohexyl-methyl)-6-fluoro-1H-indazol-3-yl]-5-methyl-6-oxo-6,7-dihydro-5H-pyrrolo[2,3-d]pyrimidin-5-yl}-1,3-oxazol-4-yl)-2,2-dimethyl-propanoic acid] | 9.73 | 122 | 6.67 |  | A (decrease in SBP 0-5 mmHg)
6 | CC(C)(Cc1csc([C@]2(C)C(=O)Nc3nc(-c4nn(Cc5cccc(F)c5)c5ccccc45)nc(N)c32)n1)C(=O)O [Example 222A, (S)-3-(2-{4-amino-2-[1-(3-fluoro-benzyl)-1H-indazol-3-yl]-5-methyl-6-oxo-6,7-dihydro-5H-pyrrolo[2,3-d]pyrimidin-5-yl}-1,3-thiazol-4-yl)-2,2-dimethyl-propanoic acid] | 9.95 | 105 | 7.15 |  | B (decrease in SBP 5-10 mmHg)
7 | CC1(c2nc(CCC(=O)O)c[nH]2)C(=O)Nc2nc(-c3nn(Cc4ccccc4F)c4cc(Cl)ccc34)nc(N)c21 (stereo not shown) [Example 235B, 3-(2-{4-Amino-2-[6-chloro-1-(2-fluorobenzyl)-1H-indazol-3-yl]-5-methyl-6-oxo-6,7-dihydro-5H-pyrrolo[2,3-d]pyrimidin-5-yl}-1H-imidazol-4-yl)propanoic acid] | 9.39 | 86.8 | 6.20 |  | A (decrease in SBP 0-5 mmHg)

Now those with a higher pKi [1], led by results:

Row | pKi [1] | Emax (sGC α1/β1 heterodimer) [%] | pEC50 (sGC α1/β1 heterodimer) | SMILES | Category: decrease in SBP (at minimum decrease in PAP of ≥15 mmHg) ([2]; Dose IT 0.03 mpk) | Category: decrease in SBP (at minimum decrease in PAP of ≥15 mmHg) ([2]; Dose IT 0.01 mpk)
8 | 10.22 | 118 | 6.80 | CC(C)(Cc1csc([C@]2(C)C(=O)Nc3nc(-c4nn(Cc5ccccc5F)c5cc(Cl)ccc45)nc(N)c32)n1)C(=O)O [Example 95B, (S)-3-(2-{4-amino-2-[6-chloro-1-(2-fluorobenzyl)-1H-indazol-3-yl]-5-methyl-6-oxo-6,7-dihydro-5H-pyrrolo[2,3-d]pyrimidin-5-yl}-1,3-thiazol-4-yl)-2,2-dimethylpropanoic acid] | A (decrease in SBP 0-5 mmHg) | 
9 | 10.18 | 130 | 5.60 | C[C@@]1(c2ccc(CCc3nn[nH]n3)cc2)C(=O)Nc2nc(-c3nn(Cc4ccccc4F)c4cc(Cl)ccc34)nc(N)c21 [Example 112B, (S)-4-Amino-2-[6-chloro-1-(2-fluorobenzyl)-1H-indazol-3-yl]-5-methyl-5-{4-[2-(2H-tetrazol-5-yl)ethyl]phenyl}-5,7-dihydro-6H-pyrrolo[2,3-d]pyrimidin-6-one] |  | A (decrease in SBP 0-5 mmHg)
10 | 10.24 | 117 | 7.28 | CC1(c2nc(CCC(F)(F)C(=O)O)co2)C(=O)Nc2nc(-c3nn(Cc4ccccc4F)c4cc(Cl)ccc34)nc(N)c21 (stereo not shown) [Example 127A, 4-(2-{4-amino-2-[6-chloro-1-(2-fluorobenzyl)-1H-indazol-3-yl]-5-methyl-6-oxo-6,7-dihydro-5H-pyrrolo[2,3-d]pyrimidin-5-yl}-1,3-oxazol-4-yl)-2,2-difluorobutanoic acid] | A (decrease in SBP 0-5 mmHg) | 
11 | 10.21 | 108 | 6.95 | C[C@@]1(c2ccc(CCC(=O)O)cc2)C(=O)Nc2nc(-c3nn(CC4CCCC4)c4cc(Cl)ccc34)nc(N)c21 [Example 160B, (S)-3-(4-{4-amino-2-[6-chloro-1-(cyclopentylmethyl)-1H-indazol-3-yl]-5-methyl-6-oxo-6,7-dihydro-5H-pyrrolo[2,3-d]pyrimidin-5-yl}phenyl)propanoic acid] |  | B (decrease in SBP 5-10 mmHg)
12 | 10.04 | 103 | 6.71 | CC(C)(Cc1coc(C2(C)C(=O)Nc3nc(-c4nn(Cc5cccc(F)c5)c5cc(F)ccc45)nc(N)c32)n1)C(=O)O (stereo not shown) [Example 195A, 3-(2-{4-amino-2-[6-fluoro-1-(3-fluorobenzyl)-1H-indazol-3-yl]-5-methyl-6-oxo-6,7-dihydro-5H-pyrrolo[2,3-d]pyrimidin-5-yl}-1,3-oxazol-4-yl)-2,2-dimethyl-propanoic acid] |  | B (decrease in SBP 5-10 mmHg)
13 | 10.06 | 113 | 7.09 | CC(C)(CCc1coc(C2(C)C(=O)Nc3nc(-c4nn(Cc5ccccc5F)c5ccccc45)nc(N)c32)n1)C(=O)O (stereo not shown) [Example 220B, 4-(2-{4-amino-2-[1-(2-fluorobenzyl)-1H-indazol-3-yl]-5-methyl-6-oxo-6,7-dihydro-5H-pyrrolo[2,3-d]pyrimidin-5-yl}-1,3-oxazol-4-yl)-2,2-dimethyl-butanoic acid] |  | B (decrease in SBP 5-10 mmHg)
